The source of these data is patent US7687079B2, “Methods of treating ileus” (priority 2002, dated 2010).

“Also recorded” adds a separate entry of the source.

Type in all cases: in vivo, mouse
The test system of experiment [1] is HO-1 mRNA. The experiment is described as follows: HO-1 mRNA in muscularis after IM (real time RT-PCR). The method, then: Pro- and anti-inflammatory gene expression was determined by real time RT-PCR. The small intestinal muscularis externa was collected at 4 time points (3, 6, 12, and 24 hr) postoperatively and snap frozen in liquid nitrogen. Total RNA extraction was performed using the guanidium-thiocyanate phenol-chloroform extraction method as described in Eskandari et al. (Id.) RNA pellets were resuspended in RNA-secure resuspension solution (Ambion Inc., Austin, Tex.), followed by removal of potential contaminating DNA by treatment with DNase I (DNA-Free Kit, Ambion Inc., Austin, Tex.). Equal aliquots (5 μg) of total RNA from each sample were quantified by spectrophotometry (wavelength […]). Peak mRNA expression was quantified in duplicate by SYBR Green two-step, real-time RT-PCR. β-actin was used as the endogenous reference. Aliquoted RNA (40 ng) was subjected to first-strand complementary DNA (cDNA) synthesis using random hexamers (PE applied Biosystems, Foster City, Calif.) and Super Script II (Life Technologies, Rockville, Md.). Primers were taken from the literature or designed according to published sequences (Table 3). PCR reaction mixture was prepared using SYBR Green PCR Core Reagents (PE Applied Biosystems). Each sample was estimated in duplicate using the conditions recommended by the manufacturer. Real-time PCR data were plotted as the ΔRn fluorescence signal versus the cycle number. An arbitrary threshold was set to the midlinear portion of the log ΔRn cycle plot. The threshold cycle (CT) is defined as the cycle number at which the ΔRn, crosses this threshold. Quantification of mRNA expression was normalized to β-actin and calculated relative to control using the comparative CT method.
To exclude PCR amplification of contaminating genomic DNA, RT-negative controls (samples containing RNA which was not reverse transcribed) were included in each PCR reaction. Melting curve analyses were performed for each reaction to ensure amplification of specific product. […] PCR amplification efficiency of each target cDNA was measured by determining the colinearity of serial dilutions. […]

Experiment [2] concerns mice subjected to surgical manipulation of the small intestine. The experiment is described as follows: intestinal transit of fluorescein-labeled dextran after intestinal manipulation (IM). An excerpt:
Surgical Manipulation. Mice were anesthetized with inhaled isoflurane and the abdomen opened by midline laparotomy. The small intestine was eventrated and gently compressed along its entire length using moistened sterile cotton applicators. This procedure is designed to simulate “running” of the bowel commonly performed during abdominal surgery in the clinical setting. The bowel was repositioned in the abdominal cavity and the incision closed by two layers of continuous sutures. The duration of the procedure was approximately 15 minutes and the animals moved freely about their cage within 20 minutes of withdrawal of anesthetic.
CO Inhalation Treatment. Mice housed in cages were placed in plexiglass chambers that were continuously ventilated with air or with air containing CO (250 ppm). […]
Mice were anesthetized and killed by exsanguination at the end of the 24-hour chamber treatment with CO or room air. In vitro circular muscle mechanical activity was measured as previously described in Eskandari et al. (Am. J. Physiol. 273:G727-G734 (1997)). […] Contractile activity was calculated by integrating the area under the trace. […] Intestinal transit was measured in controls and manipulated animals 24 hours postoperatively by evaluating the intestinal distribution of a non-absorbable fluorescein-labeled dextran (MW 70,000). […]

Experiment [3] deals with serum total nitrite. In words: Example 3 serum total nitrite. Particulars: IM-CO mice. The method, then: Ileus was induced in mice by gentle manipulation of the small intestine. An incision was made to expose the abdominal cavity of the mouse, and bowel manipulation was performed by gentle poking and prodding of the small intestine (see, e.g., Schwarz et al., Gastroenterology 121(6):1354-1357 (2001)). The incision was subsequently closed, and analyses were performed 24 hours later. Mice were exposed to CO by inhalation (250 and 500 ppm) for 1 hour immediately prior to intestinal manipulation and during the entire 24-hour recovery period. Intestinal contractility was assessed in vitro by measuring circular muscle strip contractions in response to bethanechol (0.3-300 μM) and in vivo by determining intestinal transit from the distribution of orally-fed, fluorescein-labeled dextran and calculating geometric center as described in Example 1 above. HO-1 and IL-10 mRNA expression were determined by SYBR green real time RT-PCR from extracts of muscularis extemae, as described in Example 1 above. Release of nitric oxide (NO), a potent inhibitor of smooth muscle contractility, was estimated by measuring serum total nitrite, also described in Example 1 above.

Turning to `[C-]#[O+]` [CO, carbon monoxide], the “HO-1 mRNA expression” value in experiment [1] (IM + CO vs IM, 3 hr but not 6 hr postoperatively) is given as “significantly increased”. The “HO-1 gene expression, increase over manipulation alone” value in experiment [1] (IM + CO vs IM, 3 hr postoperatively) worked out at 300%. For the same molecule, the HO-1 gene expression result in experiment [1] (unoperated control mice, CO alone, 6 hr time point) was “small, though significant, increase; also recorded: increased”. Moreover, in experiment [2] (IM + CO 250 ppm vs IM, 24 hours postoperatively), the “intestinal transit (GC, distribution of labeled dextran)” value is given as “significantly improved; also recorded: more distal distribution; also recorded: significant increase”. For the same molecule, the intestinal transit result in experiment [2] (unoperated mice, CO 250 ppm alone) was “slight insignificant shift”. Also, the serum nitrite in experiment [3] worked out at 6.0 ± 1.6 µM.
